Laboratory results reported in patent US7632952B2, “Benzothiazoles and the use thereof as medicaments” (Aventis Pharma S.A., priority 2004, dated 2009).

Legend:
Assay type in all cases: biochemical
CDK2/cyclin E = CDK2/cyclin E (Homo sapiens, UniProt P24941); assay: CDK2/cyclin E Flashplate test in 96-well format; conditions: read-out: CDK2 IC50
Outline: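 CDK2/cyclin E-(His)6 from baculovirus-coinfected Sf21 cells was IMAC-purified. Kinase reaction used biotinylated pRb peptide (10 μM final), [γ-33P]ATP in HEPES pH 7.5 with Mg2+ and DTT, at 30 °C in streptavidin Flashplates. 33P incorporation was scintillation counted and IC50 determined.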

Aurora 2 = molecular target: T1, Aurora 2 (Homo sapiens, UniProt O14965); assay: Aurora 2 kinase radioactivity scintillation test
T1 construct: A complete recombinant Aurora 2 enzyme, the N-terminal end of which was labeled with histidine; His tag (N); made in house; host or cells: E. coli
T1 sequence (O14965 1-403): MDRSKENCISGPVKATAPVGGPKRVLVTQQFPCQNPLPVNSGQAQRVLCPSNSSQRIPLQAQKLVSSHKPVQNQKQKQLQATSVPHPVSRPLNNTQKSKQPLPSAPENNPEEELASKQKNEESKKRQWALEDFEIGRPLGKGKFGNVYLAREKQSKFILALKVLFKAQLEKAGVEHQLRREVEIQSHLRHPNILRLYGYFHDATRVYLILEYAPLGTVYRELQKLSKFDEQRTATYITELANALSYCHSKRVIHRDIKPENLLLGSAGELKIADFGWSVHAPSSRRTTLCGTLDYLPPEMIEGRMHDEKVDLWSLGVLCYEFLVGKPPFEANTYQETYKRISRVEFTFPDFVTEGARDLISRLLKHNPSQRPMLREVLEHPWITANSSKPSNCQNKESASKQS
Experimental: The inhibitory effect of the compounds toward the kinase Aurora 2 is determined via a radioactivity scintillation test.
A complete recombinant Aurora 2 enzyme, the N-terminal end of which was labeled with histidine, was expressed in E. coli and purified to a quality close to homogeneity.
The C-terminal fragment (Q1687-H2101) of an NuMA (nuclear protein which is associated with the Mitotic Apparatus) expressed in E. coli, and the N-terminal end of which was labeled with histidine, was purified by chromatography with nickel chelate and used as substrate in the Aurora 2 kinase test.
The kinase activity of Aurora 2 is measured by scintillation on a microplate saturated with nickel chelate (New England Nuclear, SMP107 model). Each well contains 100 μl of the following solution: 0.02 μM of Aurora 2; 0.5 μM of NuMA substrate; 1 μM of ATP supplemented with 0.5 μCi of ATP-[^33P]. The solutions are incubated for 45 minutes at 37° C. The test buffer is then removed and the wells are rinsed twice with 300 μl of kinase buffer. The radioactivity is measured in each well using a Packard Model Top Count NXT machine.
The background noise is measured in duplicate in wells containing the radioactive ATP alone containing buffered kinase treated in the same manner as for the other samples.
The activity of the control is determined by measuring in duplicate the radioactivity in the complete test mixture (ATP, Aurora 2 and NuMA substrate), in the absence of test compound.
The inhibition of the activity of Aurora 2 with a compound of the invention is expressed as a percentage of inhibition of the control activity in the absence of test compound. Staurosporin is added to each plate as inhibition control.

CDK4/cyclin D1 = CDK4/cyclin D1 (Homo sapiens, UniProt P11802); assay: CDK4/cyclin D1 Flashplate test in 96-well format
Outline: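 CDK4-HA/cyclin D1-(His)6 complex from coinfected Sf9 cells, 25 nM final, phosphorylating 1.8 μM biotinylated pRb peptide in HEPES pH 7.5 with MgCl2, DTT and [γ-33P]ATP at 30 °C. 33P incorporation captured on streptavidin Flashplates and read by scintillation counting; IC50 from seven-point inhibitor dilutions.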

Chain of CDK4/cyclin D1 (P11802 whole entry): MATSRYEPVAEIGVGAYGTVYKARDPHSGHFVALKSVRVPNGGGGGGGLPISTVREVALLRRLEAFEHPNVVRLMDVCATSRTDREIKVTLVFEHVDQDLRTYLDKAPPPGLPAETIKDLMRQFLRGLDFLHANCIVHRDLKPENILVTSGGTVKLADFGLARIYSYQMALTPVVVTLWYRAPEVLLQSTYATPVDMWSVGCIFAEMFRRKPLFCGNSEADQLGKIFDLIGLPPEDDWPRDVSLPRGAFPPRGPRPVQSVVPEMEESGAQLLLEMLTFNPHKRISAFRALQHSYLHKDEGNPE
Chain of CDK4/cyclin D1 (P24385 whole entry partner): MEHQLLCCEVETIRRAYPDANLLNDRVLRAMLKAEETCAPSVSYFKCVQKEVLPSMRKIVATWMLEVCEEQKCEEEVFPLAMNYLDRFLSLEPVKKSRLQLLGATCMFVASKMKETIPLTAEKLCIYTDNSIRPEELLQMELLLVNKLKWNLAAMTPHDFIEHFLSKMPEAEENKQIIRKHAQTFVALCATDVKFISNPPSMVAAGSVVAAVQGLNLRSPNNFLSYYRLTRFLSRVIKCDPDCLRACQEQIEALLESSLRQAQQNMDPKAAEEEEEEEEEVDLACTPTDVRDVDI

In the case of `O=C(CCC1CCNCC1)Nc1nc2ccc(OS(=O)(=O)c3cccs3)cc2s1` [Example 33a, Thiophene-2-sulfonic acid 2-(3-piperid-4-ylpropionylamino)benzothiazol-6-yl ester; compound with trifluoroacetic acid], the IC50 (CDK2/cyclin E) is reported as 3.24 µM, the IC50 (Aurora 2) is reported as 0.436 µM and the IC50 (CDK4/cyclin D1) is reported as > 10 µM.
